Several values for one entry are separate records, joined by “and”; a condition that tells them apart may be missing. Identical values can stand only once. Entries after “also recorded” stand apart in the source; their conditions may differ.
What was measured:
σ1 receptor = σ1 receptor (Cavia porcellus, UniProt Q60492); assay: σ1 receptor binding assay, [3H]; set-up: species or system guinea pig; conditions: for selectivity for σ1R over DAT and SERT (in words): σ1R versus monoamine transporters
DAT = DAT (Rattus norvegicus, UniProt P23977); assay: DAT binding assay, [3H]WIN 35,428, rat striatum membranes; conditions: for DAT Ki values (in words): terminal piperazine amine changed to amide
SERT = SERT (Rattus norvegicus, UniProt P31652); assay: SERT binding assay, [3H]citalopram, rat brain stem membranes; conditions: DAT versus SERT Ki
hERG = hERG (Homo sapiens, UniProt Q12809); assay: hERG current block; format: cell-based; conditions: hERG IC50 over DAT Ki
[1] = Off-target binding interactions; conditions: concentration of 100 nM
[2] = Phase I metabolic stability in mouse liver microsomes; format: in vitro ADME; conditions: for phase I metabolic stability (in words): mouse liver microsomes, 60 min; for compound remaining: mouse microsomes fortified with NADPH, 60 min (1 h)
DAT Y156F mutant = DAT Y156F mutant (Homo sapiens, UniProt Q01959, Y156F); format: binding; conditions: read-out: Y156F Ki, COS7 cells, mean [SE interval]
[3] = Metabolic stability in human liver microsomes; format: in vitro ADME
mouse locomotion = assay: Locomotor activity in mice; format: in vivo; conditions: i.p., 2 h session, cocaine 3-30 mg/kg, 14a 1-30 mg/kg, 14b/14c 1-10 mg/kg

Chain of SERT (P31652 whole entry): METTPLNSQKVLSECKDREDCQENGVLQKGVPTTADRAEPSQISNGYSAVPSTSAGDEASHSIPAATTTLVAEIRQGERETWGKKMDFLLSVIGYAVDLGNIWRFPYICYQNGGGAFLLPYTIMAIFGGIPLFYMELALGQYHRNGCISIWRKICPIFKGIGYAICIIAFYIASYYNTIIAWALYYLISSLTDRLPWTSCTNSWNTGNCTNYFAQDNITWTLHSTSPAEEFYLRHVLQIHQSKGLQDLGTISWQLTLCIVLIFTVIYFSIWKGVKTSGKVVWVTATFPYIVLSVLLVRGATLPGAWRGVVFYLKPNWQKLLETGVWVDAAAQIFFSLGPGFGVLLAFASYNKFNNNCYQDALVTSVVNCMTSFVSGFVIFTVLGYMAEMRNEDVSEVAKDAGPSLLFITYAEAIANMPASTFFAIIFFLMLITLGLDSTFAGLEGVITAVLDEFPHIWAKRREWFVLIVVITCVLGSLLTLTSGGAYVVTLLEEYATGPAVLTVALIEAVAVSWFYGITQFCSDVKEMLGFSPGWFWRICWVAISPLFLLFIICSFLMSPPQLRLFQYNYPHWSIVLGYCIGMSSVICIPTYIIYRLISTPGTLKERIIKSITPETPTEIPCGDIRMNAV
Chain of σ1 receptor (Q60492 whole entry): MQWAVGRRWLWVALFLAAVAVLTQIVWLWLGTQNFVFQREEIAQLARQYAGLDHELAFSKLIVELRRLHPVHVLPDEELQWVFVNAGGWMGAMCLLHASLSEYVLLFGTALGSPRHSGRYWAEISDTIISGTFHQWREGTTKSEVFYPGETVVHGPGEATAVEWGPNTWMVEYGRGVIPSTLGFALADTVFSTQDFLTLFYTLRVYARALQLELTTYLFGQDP
Chain of DAT (P23977 whole entry): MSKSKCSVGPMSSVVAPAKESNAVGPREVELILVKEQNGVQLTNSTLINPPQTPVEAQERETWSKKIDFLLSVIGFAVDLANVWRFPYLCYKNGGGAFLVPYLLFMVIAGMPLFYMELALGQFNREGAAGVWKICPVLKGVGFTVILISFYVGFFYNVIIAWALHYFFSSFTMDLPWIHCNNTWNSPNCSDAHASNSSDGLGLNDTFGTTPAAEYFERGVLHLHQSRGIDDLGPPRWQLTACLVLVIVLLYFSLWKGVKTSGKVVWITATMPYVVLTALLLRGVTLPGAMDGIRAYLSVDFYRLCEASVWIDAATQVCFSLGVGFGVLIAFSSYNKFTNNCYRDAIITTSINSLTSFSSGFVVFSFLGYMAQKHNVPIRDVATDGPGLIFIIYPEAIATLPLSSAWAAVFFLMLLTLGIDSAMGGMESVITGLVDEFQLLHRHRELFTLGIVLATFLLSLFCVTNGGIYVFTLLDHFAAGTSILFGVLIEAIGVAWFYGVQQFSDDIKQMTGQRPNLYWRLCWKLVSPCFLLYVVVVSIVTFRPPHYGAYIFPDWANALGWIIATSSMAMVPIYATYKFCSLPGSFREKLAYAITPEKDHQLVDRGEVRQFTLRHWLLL
Chain of hERG (Q12809 whole entry): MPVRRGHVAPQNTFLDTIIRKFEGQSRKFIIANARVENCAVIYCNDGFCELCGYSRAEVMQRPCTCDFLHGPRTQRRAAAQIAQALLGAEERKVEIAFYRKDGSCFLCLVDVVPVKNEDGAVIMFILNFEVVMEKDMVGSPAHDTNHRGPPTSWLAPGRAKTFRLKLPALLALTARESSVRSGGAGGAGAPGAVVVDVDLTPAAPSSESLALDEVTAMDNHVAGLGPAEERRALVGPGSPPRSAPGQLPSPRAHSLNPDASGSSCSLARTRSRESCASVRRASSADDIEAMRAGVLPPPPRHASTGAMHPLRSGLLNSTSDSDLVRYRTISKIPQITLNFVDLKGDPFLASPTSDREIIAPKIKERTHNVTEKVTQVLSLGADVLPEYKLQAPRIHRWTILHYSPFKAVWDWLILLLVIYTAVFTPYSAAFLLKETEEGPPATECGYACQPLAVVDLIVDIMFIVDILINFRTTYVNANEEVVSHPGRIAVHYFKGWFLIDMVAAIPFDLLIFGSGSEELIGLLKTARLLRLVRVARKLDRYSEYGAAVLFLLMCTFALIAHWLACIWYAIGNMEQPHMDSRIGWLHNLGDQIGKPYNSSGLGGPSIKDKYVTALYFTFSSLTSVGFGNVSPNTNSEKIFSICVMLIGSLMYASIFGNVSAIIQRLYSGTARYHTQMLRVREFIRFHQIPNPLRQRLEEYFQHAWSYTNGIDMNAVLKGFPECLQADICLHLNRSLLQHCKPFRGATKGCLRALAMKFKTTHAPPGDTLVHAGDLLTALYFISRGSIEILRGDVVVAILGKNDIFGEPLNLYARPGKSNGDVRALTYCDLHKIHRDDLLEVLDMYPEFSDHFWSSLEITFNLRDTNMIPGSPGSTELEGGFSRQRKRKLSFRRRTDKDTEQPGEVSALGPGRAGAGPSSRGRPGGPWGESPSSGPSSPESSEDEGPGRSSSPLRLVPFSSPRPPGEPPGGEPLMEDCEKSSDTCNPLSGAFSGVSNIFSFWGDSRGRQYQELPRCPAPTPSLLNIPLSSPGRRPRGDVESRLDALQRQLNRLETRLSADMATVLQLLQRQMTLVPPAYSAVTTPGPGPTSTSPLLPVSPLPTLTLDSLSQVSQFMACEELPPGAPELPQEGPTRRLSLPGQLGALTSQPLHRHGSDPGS
Chain of DAT Y156F mutant (Q01959 whole entry Y156F): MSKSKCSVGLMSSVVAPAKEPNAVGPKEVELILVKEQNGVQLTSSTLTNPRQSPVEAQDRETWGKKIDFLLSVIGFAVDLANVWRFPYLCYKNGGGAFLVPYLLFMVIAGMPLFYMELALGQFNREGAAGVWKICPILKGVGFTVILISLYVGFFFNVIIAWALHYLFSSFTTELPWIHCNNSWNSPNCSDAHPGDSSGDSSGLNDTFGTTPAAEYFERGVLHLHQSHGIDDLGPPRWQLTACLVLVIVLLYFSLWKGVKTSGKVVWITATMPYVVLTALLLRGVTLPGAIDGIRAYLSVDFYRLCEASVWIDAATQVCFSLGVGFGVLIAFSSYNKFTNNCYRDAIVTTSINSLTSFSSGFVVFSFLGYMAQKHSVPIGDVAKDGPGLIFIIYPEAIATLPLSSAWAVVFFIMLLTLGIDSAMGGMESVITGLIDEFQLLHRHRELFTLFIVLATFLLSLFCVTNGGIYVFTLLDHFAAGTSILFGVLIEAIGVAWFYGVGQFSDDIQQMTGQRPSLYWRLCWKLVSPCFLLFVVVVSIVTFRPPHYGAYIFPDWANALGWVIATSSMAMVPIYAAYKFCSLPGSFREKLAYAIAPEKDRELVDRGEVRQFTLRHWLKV

Compound: 1-(4-(2-((Bis(4-fluorophenyl)methyl)thio)ethyl)piperazin-1-yl)-2-phenylethan-1-one [8f]
- selectivity for σ1R over DAT and SERT (in words) (σ1 receptor): σ1R selective
- DAT Ki values (in words) (DAT): low micromolar range
- selectivity for DAT over SERT (in words) (SERT): equivalent

Compound: CC(O)CN1CCN(CCSC(c2ccc(F)cc2)c2ccc(F)cc2)CC1 (stereo not shown) [3a, reference compound]
- hERG/DAT affinity ratio (hERG): 3

Compound: CC(O)CN1CCN(CC[S+]([O-])C(c2ccc(F)cc2)c2ccc(F)cc2)CC1 (stereo not shown) [3b, 1-(4-(2-((bis(4-fluorophenyl)methyl)sulfinyl)ethyl)-piperazin-1-yl)-propan-2-ol, reference compound]
- off-target interactions [1]: no significant interactions

Compound: OC(Cc1ccc(F)cc1)CN1CCN(CCSC(c2ccc(F)cc2)c2ccc(F)cc2)CC1 (stereo not shown) [8a, 1-(4-(2-((Bis(4-fluorophenyl)methyl)thio)ethyl)piperazin-1-yl)-3-(4-fluorophenyl)propan-2-ol]
- phase I metabolic stability (in words) [2]: almost no compound present after 60 min

Compound: O[C@@H](Cc1ccccc1)CN1CCN(CCSC(c2ccc(F)cc2)c2ccc(F)cc2)CC1 [8d, (S)-1-(4-(2-((Bis(4-fluorophenyl)methyl)thio)ethyl)piperazin-1-yl)-3-phenylpropan-2-ol]
- phase I metabolic stability (in words) [2]: almost no compound present after 60 min

Compound: O[C@H](Cc1ccccc1)CN1CCN(CCSC(c2ccc(F)cc2)c2ccc(F)cc2)CC1 [8e, (R)-1-(4-(2-((Bis(4-fluorophenyl)methyl)thio)ethyl)piperazin-1-yl)-3-phenylpropan-2-ol]
- phase I metabolic stability (in words) [2]: almost no compound present after 60 min

Compound: CC(=O)CN1CCN(CCSC(c2ccc(F)cc2)c2ccc(F)cc2)CC1 [8g, 1-(4-(2-((Bis(4-fluorophenyl)methyl)thio)ethyl)piperazin-1-yl)propan-2-one]
- selectivity for σ1R over DAT and SERT (in words) (σ1 receptor): σ1R selective
- decrease of DAT affinity compared to 3a (DAT; 2-propanol oxidised to 2-propanone): ~ 5 fold

Compound: CCC(=O)N1CCN(CCSC(c2ccc(F)cc2)c2ccc(F)cc2)CC1 [11d, 1-(4-(2-((Bis(4-fluorophenyl)methyl)thio)ethyl)piperazin-1-yl)propan-1-one]
- selectivity for σ1R over DAT and SERT (in words) (σ1 receptor): σ1R selective
- DAT Ki values (in words) (DAT): low micromolar range
- selectivity for DAT over SERT (in words) (SERT): equivalent

Compound: C[C@H](O)CN1CCN(CC[S+]([O-])C(c2ccc(F)cc2)c2ccc(F)cc2)CC1 (stereo partly drawn) [12a, (S)-1-(4-(2-((Bis(4-fluorophenyl)methyl)sulfinyl)ethyl)piperazin-1-yl)propan-2-ol]
- phase I metabolic stability (in words) [2]: exceptional and similar metabolic stability

Compound: C[C@@H](O)CN1CCN(CC[S+]([O-])C(c2ccc(F)cc2)c2ccc(F)cc2)CC1 (stereo partly drawn) [12b, (R)-1-(4-(2-((Bis(4-fluorophenyl)methyl)sulfinyl)ethyl)piperazin-1-yl)propan-2-ol]
- phase I metabolic stability (in words) [2]: exceptional and similar metabolic stability

Compound: [O-][S+](CCCN1CCN(CCCc2ccccc2)CC1)C(c1ccc(F)cc1)c1ccc(F)cc1 (stereo not shown) [12c, 1-(3-((Bis(4-fluorophenyl)methyl)sulfinyl)propyl)-4-(3-phenylpropyl)piperazine]
- phase I metabolic stability (in words) [2]: almost no compound present after 60 min

Compound: CC(O)CN1[C@H](C)CN(CCSC(c2ccc(F)cc2)c2ccc(F)cc2)C[C@@H]1C (stereo partly drawn) [14a, 1-(4-(2-((Bis(4-fluorophenyl)methyl)thio)ethyl)-2,6-cis-dimethylpiperazin-1-yl)propan-2-ol]
- off-target interactions [1]: no significant interactions
- Ki (DAT Y156F mutant): 269 nM
- metabolic stability (in words) [3]: moderate metabolic stability
- higher binding affinity at σ1 receptors than at DAT (σ1 receptor; σ1 versus DAT): ~ 4 fold
- locomotor (ambulatory) activity, maximum distance traveled in 30 min (mouse locomotion): not significantly different than vehicle; also recorded: only moderate locomotor stimulation

Compound: CC(O)CN1[C@H](C)CN(CC[S+]([O-])C(c2ccc(F)cc2)c2ccc(F)cc2)C[C@@H]1C (stereo partly drawn) [15a, 1-(4-(2-((Bis(4-fluorophenyl)methyl)sulfinyl)ethyl)-2,6-cis-dimethylpiperazin-1-yl)propan-2-ol]
- off-target interactions [1]: no significant interactions
- compound remaining [2]: 30–44%
- hERG/DAT affinity ratio (hERG): 30

Compound: C[C@@H]1CN(CC[S+]([O-])C(c2ccc(F)cc2)c2ccc(F)cc2)C[C@H](C)N1CC(O)Cc1ccccc1 (stereo partly drawn) [15b, 1-(4-(2-((Bis(4-fluorophenyl)methyl)sulfinyl)ethyl)-2,6-cis-dimethylpiperazin-1-yl)-3-phenylpropan-2-ol]
- off-target interactions [1]: no significant interactions
- phase I metabolic stability (in words) [2]: almost no compound present after 60 min

Compound: OC(CN1CCC2(CCN(CCSC(c3ccc(F)cc3)c3ccc(F)cc3)CC2)C1)c1ccccc1 (stereo not shown) [18b, 2-(8-(2-((Bis(4-fluorophenyl)methyl)thio)ethyl)-2,8-diazaspiro[4.5]decan-2-yl)-1-phenylethan-1-ol]
- compound remaining [2]: 30–44% and 44%
- selectivity for σ1R over DAT and SERT (in words) (σ1 receptor): binding preference for σ1R
- selectivity for DAT over SERT (in words) (SERT): not selective for DAT over SERT; also recorded: equivalent

Compound: CC(O)CN1CCC2(CCN(CC[S+]([O-])C(c3ccc(F)cc3)c3ccc(F)cc3)CC2)C1 (stereo not shown) [compound 19, 1-(8-(2-((Bis(4-fluorophenyl)methyl)sulfinyl)ethyl)-2,8-diazaspiro[4.5]decan-2-yl)propan-2-ol]
- selectivity for σ1R over DAT and SERT (in words) (σ1 receptor): binding preference for σ1R
- selectivity for DAT over SERT (in words) (SERT): not selective for DAT over SERT; also recorded: equivalent
